Laboratory results as given in PMC11189555, “Aryl amino acetamides prevent Plasmodium falciparum ring development via targeting the lipid-transfer protein PfSTART1” (Nature Communications, 2024).
Like-named read-outs stand apart in the source and are kept apart here.

What was measured:
[1] = test system: PopD-D7 M-833 resistant clone (PfSTART1 N309K); experiment: Growth inhibition assay (72 h, LDH activity); assay type: cell-based, Plasmodium falciparum
Method: The drug was then removed, and parasites were allowed to recover. Another cycle of drug treatment (3 μM M-833) was then resumed. The resistant lines were cloned out by limiting dilution (diluting the culture into a 96-well plate to achieve an average of ~0.3 parasites per well), prior to growth inhibition assays and genomic DNA (gDNA) extraction (DNeasy Blood and Tissue kit (Qiagen)[18].
(§1) Parasite growth assays with inhibitory compounds were performed as per[11] and are fully described in the Supplementary Information. […]
(§2) Growth inhibition assays. Synchronised ring-stage parasites (0.3-0.6% parasitemia, 2% haematocrit) were grown for 72 h in a serial-dilution of the compound under […]
(§3) and compound 4. Note that M-833 was first purchased from MolPort (MolPort -002-267-916) then made in-house at WEHI: the differences observed in EC50s across experiments are attributed to the different batches of M -833. For some experiments, 0, 0.25 or 2.5 mM of glucosamine (GlcN) was also added. Experiments were set up in technical duplicates or triplicates. Following a freeze -thaw cycle, lactate dehydrogenase (LDH) activity was assessed as an indicator of parasite growt h 5. 30 μL of parasite culture was incubated for 30 min in the dark with 75 μL Malstat mixture (0.1 M Tris pH 9.0, 20 g/L lactic acid, pH 7.5, 0.2% Triton-X100, 0.5 g/L acetylpyridine adenine dinucleotide (APAD, Sigma), 200 μg/mL nitroblue tetrazolium (NBT; Sigma), 1 μg/mL phenozine ethosulfate (PES; Sigma)). Absorbance was then measured at 650 nm, transformed using the formula below, plotted against the logarithm of the concentrations, and a non-linear regression (log(inhibitor) vs. response, variable slope) was calculated using GraphPad Prism to assess the half-inhibitory […]
(§4) Growth inhibition % = (1 − average(sample)− average(uRBC)) ∗ 100 […]
(§5) The DMSO samples were also used to assess growth of parasite in the presence of 0.25 and 2.5 mM GlcN (normalised by DMSO in 0 mM GlcN). […]

[2] = test system: 3D7 P. falciparum parasites; experiment: Growth inhibition assay (72 h, LDH activity); assay type: cell-based, Plasmodium falciparum; conditions: for EC50: Plasmodium falciparum
Method: as §1, §2, §3, §4, §5

CC(C)(Oc1ccc(Cl)c(S(=O)(=O)N2CCOCC2)c1)C(=O)Nc1ccc(F)c(Cl)c1 [compound 3]
EC50 ([1]; Plasmodium falciparum, Supplementary Table 1, PopD-D7 (N309K), 72 h, read-out: EC50): 1400 nM | resistance of the line compared with 3D7 ([1]; PopD-D7 (N309K), Fig 4B): highly resistant | (av-uRBC) / (DMSO-uRBC) x100 ([1]; PopD-D7, 3.04832 nM, biological replicate 1): 117.893 | (av-uRBC) / (DMSO-uRBC) x100 ([1]; PopD-D7, 3.04832 nM, biological replicate 2): 107.059 | (av-uRBC) / (DMSO-uRBC) x100 ([1]; PopD-D7, 3.04832 nM, biological replicate 3): 122.96 | (av-uRBC) / (DMSO-uRBC) x100 ([1]; PopD-D7, 9.14495 nM, biological replicate 1): 119.508 | (av-uRBC) / (DMSO-uRBC) x100 ([1]; PopD-D7, 9.14495 nM, biological replicate 2): 110.415 | (av-uRBC) / (DMSO-uRBC) x100 ([1]; PopD-D7, 9.14495 nM, biological replicate 3): 124.421 | (av-uRBC) / (DMSO-uRBC) x100 ([1]; PopD-D7, 27.4348 nM, biological replicate 1): 119.539 | (av-uRBC) / (DMSO-uRBC) x100 ([1]; PopD-D7, 27.4348 nM, biological replicate 2): 110.363 | (av-uRBC) / (DMSO-uRBC) x100 ([1]; PopD-D7, 27.4348 nM, biological replicate 3): 140.932 | (av-uRBC) / (DMSO-uRBC) x100 ([1]; PopD-D7, 82.3045 nM, biological replicate 1): 115.279 | (av-uRBC) / (DMSO-uRBC) x100 ([1]; PopD-D7, 82.3045 nM, biological replicate 2): 110.433 | (av-uRBC) / (DMSO-uRBC) x100 ([1]; PopD-D7, 82.3045 nM, biological replicate 3): 132.525 | (av-uRBC) / (DMSO-uRBC) x100 ([1]; PopD-D7, 246.914 nM, biological replicate 1): 110.69 | (av-uRBC) / (DMSO-uRBC) x100 ([1]; PopD-D7, 246.914 nM, biological replicate 2): 106.686 | (av-uRBC) / (DMSO-uRBC) x100 ([1]; PopD-D7, 246.914 nM, biological replicate 3): 118.688 | (av-uRBC) / (DMSO-uRBC) x100 ([1]; PopD-D7, 740.741 nM, biological replicate 1): 93.2195 | (av-uRBC) / (DMSO-uRBC) x100 ([1]; PopD-D7, 740.741 nM, biological replicate 2): 100.295 | (av-uRBC) / (DMSO-uRBC) x100 ([1]; PopD-D7, 740.741 nM, biological replicate 3): 70.3418 | (av-uRBC) / (DMSO-uRBC) x100 ([1]; PopD-D7, 2222.22 nM, biological replicate 1): 51.7543 | (av-uRBC) / (DMSO-uRBC) x100 ([1]; PopD-D7, 2222.22 nM, biological replicate 2): 59.804 | (av-uRBC) / (DMSO-uRBC) x100 ([1]; PopD-D7, 2222.22 nM, biological replicate 3): 18.6053 | (av-uRBC) / (DMSO-uRBC) x100 ([1]; PopD-D7, 6666.67 nM, biological replicate 1): 13.8697 | (av-uRBC) / (DMSO-uRBC) x100 ([1]; PopD-D7, 6666.67 nM, biological replicate 2): 12.8436 | (av-uRBC) / (DMSO-uRBC) x100 ([1]; PopD-D7, 6666.67 nM, biological replicate 3): 12.5413 | (av-uRBC) / (DMSO-uRBC) x100 ([1]; PopD-D7, 20000 nM, biological replicate 1): 8.262 | (av-uRBC) / (DMSO-uRBC) x100 ([1]; PopD-D7, 20000 nM, biological replicate 2): 6.955 | (av-uRBC) / (DMSO-uRBC) x100 ([1]; PopD-D7, 20000 nM, biological replicate 3): 7.3043 | Fold change compared to 3D7 ([1]; Supplementary Table 1, EC50 on PopD-D7 vs 3D7): 88 fold | (av-uRBC) / (DMSO-uRBC) x100 ([2]; 3D7, conc. 3.04832 nM, Biological replicate 1 (2021-10-25)): 98.9546 | (av-uRBC) / (DMSO-uRBC) x100 ([2]; 3D7, conc. 3.04832 nM, Biological replicate 2 (2021-11-03)): 99.5733 | (av-uRBC) / (DMSO-uRBC) x100 ([2]; 3D7, conc. 3.04832 nM, Biological replicate 3 (2021-11-11)): 55.9066 | (av-uRBC) / (DMSO-uRBC) x100 ([2]; 3D7, conc. 9.14495 nM, Biological replicate 1 (2021-10-25)): 81.8447 | (av-uRBC) / (DMSO-uRBC) x100 ([2]; 3D7, conc. 9.14495 nM, Biological replicate 2 (2021-11-03)): 87.421 | (av-uRBC) / (DMSO-uRBC) x100 ([2]; 3D7, conc. 9.14495 nM, Biological replicate 3 (2021-11-11)): 38.3092 | (av-uRBC) / (DMSO-uRBC) x100 ([2]; 3D7, conc. 27.4348 nM, Biological replicate 1 (2021-10-25)): 30.9131 | (av-uRBC) / (DMSO-uRBC) x100 ([2]; 3D7, conc. 27.4348 nM, Biological replicate 2 (2021-11-03)): 28.899 | (av-uRBC) / (DMSO-uRBC) x100 ([2]; 3D7, conc. 27.4348 nM, Biological replicate 3 (2021-11-11)): 16.2848 | (av-uRBC) / (DMSO-uRBC) x100 ([2]; 3D7, conc. 82.3045 nM, Biological replicate 1 (2021-10-25)): 11.7409 | (av-uRBC) / (DMSO-uRBC) x100 ([2]; 3D7, conc. 82.3045 nM, Biological replicate 2 (2021-11-03)): 11.9543 | (av-uRBC) / (DMSO-uRBC) x100 ([2]; 3D7, conc. 82.3045 nM, Biological replicate 3 (2021-11-11)): 7.809 | (av-uRBC) / (DMSO-uRBC) x100 ([2]; 3D7, conc. 246.914 nM, Biological replicate 1 (2021-10-25)): 8.8892 | (av-uRBC) / (DMSO-uRBC) x100 ([2]; 3D7, conc. 246.914 nM, Biological replicate 2 (2021-11-03)): 10.72 | (av-uRBC) / (DMSO-uRBC) x100 ([2]; 3D7, conc. 246.914 nM, Biological replicate 3 (2021-11-11)): 6.2069 | (av-uRBC) / (DMSO-uRBC) x100 ([2]; 3D7, conc. 740.741 nM, Biological replicate 1 (2021-10-25)): 8.477 | (av-uRBC) / (DMSO-uRBC) x100 ([2]; 3D7, conc. 740.741 nM, Biological replicate 2 (2021-11-03)): 10.3467 | (av-uRBC) / (DMSO-uRBC) x100 ([2]; 3D7, conc. 740.741 nM, Biological replicate 3 (2021-11-11)): 4.271 | (av-uRBC) / (DMSO-uRBC) x100 ([2]; 3D7, conc. 2222.22 nM, Biological replicate 1 (2021-10-25)): 8.256 | (av-uRBC) / (DMSO-uRBC) x100 ([2]; 3D7, conc. 2222.22 nM, Biological replicate 2 (2021-11-03)): 10.0343 | (av-uRBC) / (DMSO-uRBC) x100 ([2]; 3D7, conc. 2222.22 nM, Biological replicate 3 (2021-11-11)): 3.637 | (av-uRBC) / (DMSO-uRBC) x100 ([2]; 3D7, conc. 6666.67 nM, Biological replicate 1 (2021-10-25)): 8.6332 | (av-uRBC) / (DMSO-uRBC) x100 ([2]; 3D7, conc. 6666.67 nM, Biological replicate 2 (2021-11-03)): 8.244 | (av-uRBC) / (DMSO-uRBC) x100 ([2]; 3D7, conc. 6666.67 nM, Biological replicate 3 (2021-11-11)): 2.725 | (av-uRBC) / (DMSO-uRBC) x100 ([2]; 3D7, conc. 20000 nM, Biological replicate 1 (2021-10-25)): 7.467 | (av-uRBC) / (DMSO-uRBC) x100 ([2]; 3D7, conc. 20000 nM, Biological replicate 2 (2021-11-03)): 5.95 | (av-uRBC) / (DMSO-uRBC) x100 ([2]; 3D7, conc. 20000 nM, Biological replicate 3 (2021-11-11)): -1.791 | improvement in antiparasitic activity relative to the activity of M-833 ([2]; EC50 based): 10 fold | EC50 ([2]; 3D7, 72 h, Supplementary Table 1, 3D7, 72 h, read-out: EC50): 16 nM | EC50 ([2]; 3D7, Fig 4A, 3D7 parasites, read-out: Pf 3D7 EC50 (SD)): 150 nM | EC50 ([2]; 3D7, text on structure activity relationship (Fig 4A), read-out: EC50, antiparasitic activity): 120 nM
